These results are taken from PMC3222310, “Purification and characterization of hydroquinone dioxygenase from Sphingomonas sp. strain TTNP3” (AMB Express, 2011).

Series [1] concerns the target T1, hydroquinone dioxygenase (HQDO) from Sphingomonas sp. strain TTNP3 (Sphingomonas sp. TTNP3, UniProt F8TW82+F8TW83).
T1 construct: gene hqdB; native enzyme purified from nonylphenol-induced cells; untagged; alpha2beta2 heterotetramer, 120 kDa by SEC, bands 38 kDa and 19 kDa; b63 order implies HqdA small and HqdB large, abstract order of identities contradicts
T1 sequence (F8TW83 1-341): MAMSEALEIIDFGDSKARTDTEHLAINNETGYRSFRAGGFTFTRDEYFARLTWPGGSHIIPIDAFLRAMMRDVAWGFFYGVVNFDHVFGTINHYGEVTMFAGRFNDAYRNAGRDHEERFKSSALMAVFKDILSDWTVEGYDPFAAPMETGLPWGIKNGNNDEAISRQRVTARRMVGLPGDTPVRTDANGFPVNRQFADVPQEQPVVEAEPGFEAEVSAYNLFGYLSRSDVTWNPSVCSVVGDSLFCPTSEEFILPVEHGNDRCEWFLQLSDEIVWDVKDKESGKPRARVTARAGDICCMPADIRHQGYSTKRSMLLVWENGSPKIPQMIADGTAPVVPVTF
T1 sequence (F8TW82 1-170): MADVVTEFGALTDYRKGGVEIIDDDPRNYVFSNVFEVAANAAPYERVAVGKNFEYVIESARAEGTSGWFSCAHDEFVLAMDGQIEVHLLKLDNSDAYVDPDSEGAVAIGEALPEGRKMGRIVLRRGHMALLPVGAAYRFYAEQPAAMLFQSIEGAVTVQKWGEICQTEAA
The experiment in a line: residual activity on HQ with inhibitor. The series is classed as biochemical. The text has this: residual activity on HQ with inhibitor on hydroquinone dioxygenase (HQDO) from Sphingomonas sp. strain TTNP3

Substrate in series [2]: Oc1ccc(O)cc1
In words: purified protein. The series is classed as biochemical, Sphingomonas sp. TTNP3. Particulars: air-saturated 50 mM Tris, pH 7.0, 25°C, kcat per heterotetramer, suicide deactivation by substrate.

With `O=C(O)c1ccc(O)c(O)c1` [3,4-Dihydroxybenzoate], the activity at 200 µM in series [1] is 94 ± 4.6%. In series [1], `O=C(O)/C=C/c1ccc(O)cc1` [4-Coumaric acid] displayed an activity at 200 µM of 97 ± 1.9%.

The molecule `O=C(O)c1ccc(O)cc1` [4-Hydroxybenzoate] had an activity at 200 µM in series [1] of 46 ± 0.4%. Take `N#CCc1ccc(O)cc1` [4-Hydroxybenzylcyanide]: the “Activity (%)” value in series [1] (2 µM, substrate HQ, compound named 4-hydroxybenzonitrile in text, 4-hydroxybenzylcyanide in table) was found to be 16 ± 0.2%. In turn, `Oc1ccc(S)cc1` [4-Mercaptophenol] gave an activity at 20 µM in series [1] of 5%. In series [1], `O=[N+]([O-])c1ccc(O)cc1` [4-Nitrophenol] returned an activity at 200 µM of 27 ± 1.2%. In series [1], `O=C1C=CC(=O)C=C1` [Benzoquinone] showed an activity at 20 µM of 16 ± 0.3%.

On to `O=C(O)/C=C/c1ccc(O)c(O)c1` [Caffeic acid], for which, in series [1], the activity at 80 µM worked out at 98 ± 2.5%.

For the molecule `Oc1ccccc1O` [Catechol], the activity at 200 µM in series [1] is 93 ± 1.3%.

With `Oc1ccccc1` [Phenol], the activity at 200 µM in series [1] was 98 ± 1.7%. Consider `Oc1cccc(O)c1` [Resorcinol], for which the activity at 200 µM in series [1] was 99 ± 0.5%. Still for that read-out and setting: with `COc1cc(C(=O)O)ccc1O` [Vanillate] the figure was 86 ± 1%.

`COc1cc(C=O)ccc1O` [Vanillin]: the activity at 100 µM in series [1] was determined as 18 ± 7.4%. On to `COc1cc(CO)ccc1O` [Vanillyl alcohol], for which the activity at 200 µM in series [1] amounted to 62 ± 1%.

B1: hydroquinone dioxygenase (HQDO) from Sphingomonas sp. strain TTNP3 (Sphingomonas sp. TTNP3) (protein)
chain 1: MAMSEALEIIDFGDSKARTDTEHLAINNETGYRSFRAGGFTFTRDEYFARLTWPGGSHIIPIDAFLRAMMRDVAWGFFYGVVNFDHVFGTINHYGEVTMFAGRFNDAYRNAGRDHEERFKSSALMAVFKDILSDWTVEGYDPFAAPMETGLPWGIKNGNNDEAISRQRVTARRMVGLPGDTPVRTDANGFPVNRQFADVPQEQPVVEAEPGFEAEVSAYNLFGYLSRSDVTWNPSVCSVVGDSLFCPTSEEFILPVEHGNDRCEWFLQLSDEIVWDVKDKESGKPRARVTARAGDICCMPADIRHQGYSTKRSMLLVWENGSPKIPQMIADGTAPVVPVTF
chain 2: MADVVTEFGALTDYRKGGVEIIDDDPRNYVFSNVFEVAANAAPYERVAVGKNFEYVIESARAEGTSGWFSCAHDEFVLAMDGQIEVHLLKLDNSDAYVDPDSEGAVAIGEALPEGRKMGRIVLRRGHMALLPVGAAYRFYAEQPAAMLFQSIEGAVTVQKWGEICQTEAA
notes: native enzyme purified from nonylphenol-induced cells; untagged; alpha2beta2 heterotetramer, 120 kDa by SEC, bands 38 kDa and 19 kDa; b63 order implies HqdA small and HqdB large, abstract order of identities contradicts
As usually defined, the Km is the concentration of substrate that gives half-maximal velocity. As a reminder, the kcat is the number of substrate molecules converted per active site and unit of time at saturation. For B1, in series [2], the Km was found to be 2.2 ± 0.2 µM and the kcat worked out at 13.5 s⁻¹.
